Results published in US4578400A, “Therapeutic composition and method for treatment of cardiovascular diseases” (priority 1982, dated 1986).

Tests used:
[1] = test system: ouabain induced arrhythmia; test: Effect on ouabain induced arrhythmia; type: in vivo, male hartley guinea pigs; settings: for relative time for extrasystole to occur / relative time for cardiac arrest to occur / relative time for ventricular fibrillation to occur: control = 100
Source text: Effect on ouabain induced arrhythmia
The procedure described in Matsubara et al. (Folia Pharmacologica Japonica, 72, 557-571, 1976) was followed.
Male hartley guinea pigs were divided into groups of 8 animals and anesthetized with intraperitoneal urethane. Three groups were orally administered 5--HDA--Na, 5--HDAE and 5--HDA--DHP dissolved in distilled water. Another group was intravenously injected with 5--HDA--Na dissolved in physiological saline. One group was orally administered δ-DL emulsified in 5% aqueous arabic gum solution. One group was injected intravenously with lidocaine dissolved in physiological saline. For the respective routes of administration, control groups were administered the solvents used in administration of the test compounds. Thirty minutes after the oral administration and one minute after the intravenous injection, ouabain was infused into the jugular vein at a rate of 5 μg/kg/min until extrasystole, ventricular fibrillation and cardiac arrest appeared on a standard limb lead II of ECG. The results are shown in Table 3, with the time necessary for the respective symptoms to occur in the control groups taken as 100.

[2] = Acute toxicity; settings: one week observation
Source text: Male ddy mice weighing about 25 g were divided into groups of 10 animals and orally administered once with 3 g/kg of 5--HDA, 5--HDA--Na, 5--HDAE, 5--HDA--DHP or δ-DL, or intraperitoneally injected once with 1 g/kg of said compounds.

Compound: CCCCCC(O)CCCC(=O)[O-].[Na+] (centres unmarked)
- relative time for extrasystole to occur ([1]; i.v., 20 mg/kg): 146
- relative time for cardiac arrest to occur ([1]; i.v., 20 mg/kg, *P < 0.05): 132
- relative time for ventricular fibrillation to occur ([1]; i.v., 20 mg/kg, *P < 0.05): 140
- relative time for extrasystole to occur ([1]; oral, 50 mg/kg): 118
- relative time for cardiac arrest to occur ([1]; oral, 50 mg/kg, *P < 0.05): 134
- relative time for ventricular fibrillation to occur ([1]; oral, 50 mg/kg, *P < 0.05): 126
- relative time for extrasystole to occur ([1]; oral, 100 mg/kg): 160
- relative time for ventricular fibrillation to occur ([1]; oral, 100 mg/kg, *P < 0.05): 144
- relative time for cardiac arrest to occur ([1]; oral, 100 mg/kg, *P < 0.05 where starred): 136
- antiarrhythmic effects (in words) ([1]; ouabain induced arrhythmia): significant antiarrhythmic effects
- acute toxicity: abnormality ([2]; 1 g/kg intraperitoneal once): no abnormality occurred
- acute toxicity: death ([2]; 1 g/kg intraperitoneal once): no animal died
- acute toxicity: abnormality ([2]; 3 g/kg oral once): no abnormality occurred
- acute toxicity: death ([2]; 3 g/kg oral once): no animal died
